Assay results: ChEMBL document CHEMBL4251622, “Design, synthesis, and biological evaluation of polo-like kinase 1/eukaryotic elongation factor 2 kinase (PLK1/EEF2K) dual inhibitors for regulating breast cancer cells apoptosis and autophagy” (Eur J Med Chem, 2018)
Calls of active or inactive are those of the source. The rule behind the calls is not given here.

What was measured:
[1] = molecular target: NUAK family SNF1-like kinase 2 (Homo sapiens) (UniProt Q9H093); experiment: Inhibition of wild-type human partial length SNARK (P22 to A333 residues) expressed in mammalian expression system assessed as residual activity at 1 uM by Kinomescan method relative to control
BT-483 [2] = experiment: Induction of apoptosis in human BT-483 cells assessed as live cells at 10 uM by Annexin V-FITC/propidium iodide staining based flow cytometry (reference value: 87.5%); assay type: functional
[3] = molecular target: Mitogen-activated protein kinase kinase kinase 9 (Homo sapiens) (UniProt P80192); experiment: Inhibition of wild-type human partial length MLK1 (V88 to W426 residues) expressed in bacterial expression system assessed as residual activity at 1 uM by Kinomescan method relative to control
BT-474 = experiment: Cytotoxicity against human BT474 cells after 24 hrs by MTT assay; assay type: functional, cell-based
BT-483 [4] = experiment: Effect on total EEF2 protein expression in human BT-483 cells at 5 to 10 uM by Western blot analysis; assay type: ADME, cell-based; details: bt-483, 10 µM
[5] = molecular target: Non-receptor tyrosine-protein kinase TYK2 (Homo sapiens) (UniProt P29597); experiment: Inhibition of wild-type human partial length TYK2 JH1 catalytic domain (V877 to C1187 residues) expressed in mammalian expression system assessed as residual activity at 1 uM by Kinomescan method relative to control
[6] = molecular target: Ribosomal protein S6 kinase alpha-1 (Homo sapiens) (UniProt Q15418); experiment: Inhibition of wild-type human partial length N-terminal RSK1 Kinase domain 1 (M1 to E388 residues) expressed in bacterial expression system assessed as residual activity at 1 uM by Kinomescan method relative to control
BT-483 [7] = experiment: Induction of apoptosis in human BT-483 cells assessed as apoptotic nuclear fragment formation at 5 uM after 24 hrs by fluorescence microscopic method; assay type: functional, cell-based
[8] = molecular target: Receptor tyrosine-protein kinase erbB-4 (Homo sapiens) (UniProt Q15303); experiment: Inhibition of wild-type human partial length ERBB4 (L690 to K994 residues) expressed in bacterial expression system assessed as residual activity at 1 uM by Kinomescan method relative to control
[9] = molecular target: Serine/threonine-protein kinase ULK1 (Homo sapiens) (UniProt O75385); experiment: Inhibition of wild-type human partial length ULK1 (M1 to T309 residues) expressed in mammalian expression system assessed as residual activity at 1 uM by Kinomescan method relative to control
[10] = molecular target: RAC-beta serine/threonine-protein kinase (Homo sapiens) (UniProt P31751); experiment: Inhibition of wild-type human partial length AKT2 expressed in bacterial expression system assessed as residual activity at 1 uM by Kinomescan method relative to control
[11] = molecular target: Mitogen-activated protein kinase 11 (Homo sapiens) (UniProt Q15759); experiment: Inhibition of wild-type human full length p38-beta (M1 to Q364 residues) expressed in bacterial expression system assessed as residual activity at 1 uM by Kinomescan method relative to control
[12] = molecular target: Fibroblast growth factor receptor 4 (Homo sapiens) (UniProt P22455); experiment: Inhibition of wild-type human partial length FGFR4 (G402 to E713 residues) expressed in bacterial expression system assessed as residual activity at 1 uM by Kinomescan method relative to control
[13] = molecular target: Atypical kinase COQ8A, mitochondrial (Homo sapiens) (UniProt Q8NI60); experiment: Inhibition of wild-type human […] ADCK3 (M280 to Q647 residues) expressed in bacterial expression system assessed as residual activity at 1 uM by Kinomescan method relative to control
[14] = molecular target: MAP kinase-activated protein kinase 2 (Homo sapiens) (UniProt P49137); experiment: Inhibition of wild-type human partial length MAPKAPK2 (V48 to D345 residues) expressed in bacterial expression system assessed as residual activity at 1 uM by Kinomescan method relative to control
[15] = molecular target: 3-phosphoinositide-dependent protein kinase 1 (Homo sapiens) (UniProt O15530); experiment: Inhibition of wild-type human full length PDPK1 (M1 to Q556 residues) expressed in bacterial expression system assessed as residual activity at 1 uM by Kinomescan method relative to control
[16] = molecular target: Tyrosine-protein kinase BTK (Homo sapiens) (UniProt Q06187); experiment: Inhibition of wild-type human full length BTK (M1 to S659 residues) expressed in mammalian expression system assessed as residual activity at 1 uM by Kinomescan method relative to control
[17] = molecular target: Serine/threonine-protein kinase Chk1 (Homo sapiens) (UniProt O14757); experiment: Inhibition of wild-type human partial length CHEK1 (M1 to G289 residues) expressed in bacterial expression system assessed as residual activity at 1 uM by Kinomescan method relative to control
[18] = molecular target: Mitogen-activated protein kinase kinase kinase 4 (Homo sapiens) (UniProt Q9Y6R4); experiment: Inhibition of wild-type human partial length MAP3K4 (G1319 to E1608 residues) expressed in bacterial expression system assessed as residual activity at 1 uM by Kinomescan method relative to control
[19] = molecular target: Mitogen-activated protein kinase 1 (Homo sapiens) (UniProt P28482); experiment: Inhibition of wild-type human full length ERK2 (M1 to S360 residues) expressed in bacterial expression system assessed as residual activity at 1 uM by Kinomescan method relative to control
[20] = test system: Serine/threonine-protein kinase B-raf (Homo sapiens), P15056 [V600E]; experiment: Inhibition of human partial length BRAF V600E mutant (S429 to E741 residues) expressed in mammalian expression system assessed as residual activity at 1 uM by Kinomescan method relative to control
[21] = molecular target: Mitogen-activated protein kinase 9 (Homo sapiens) (UniProt P45984); experiment: Inhibition of wild-type human full length JNK2 (M1 to Q382 residues) expressed in mammalian expression system assessed as residual activity at 1 uM by Kinomescan method relative to control
[22] = molecular target: Insulin-like growth factor 1 receptor (Homo sapiens) (UniProt P08069); experiment: Inhibition of wild-type human partial length IGF1R (L972 to D1294 residues) expressed in bacterial expression system assessed as residual activity at 1 uM by Kinomescan method relative to control
[23] = molecular target: Serine/threonine-protein kinase pim-2 (Homo sapiens) (UniProt Q9P1W9); experiment: Inhibition of wild-type human partial length PIM2 (M1 to E291 residues) expressed in bacterial expression system assessed as residual activity at 1 uM by Kinomescan method relative to control
[24] = molecular target: Aurora kinase B (Homo sapiens) (UniProt Q96GD4); experiment: Inhibition of wild-type human partial length AURKB (D25 to A303 residues) expressed in mammalian expression system assessed as residual activity at 1 uM by Kinomescan method relative to control
BT-483 [25] = experiment: Downregulation of Bcl2 protein expression in human BT-483 cells at 5 to 10 uM by Western blot analysis; assay type: functional, cell-based
[26] = molecular target: Glycogen synthase kinase-3 beta (Homo sapiens) (UniProt P49841); experiment: Inhibition of wild-type human full length GSK3B (M1 to T433 residues) expressed in mammalian expression system assessed as residual activity at 1 uM by Kinomescan method relative to control

Chain of Fibroblast growth factor receptor 4 (Homo sapiens) (P22455 22-802 limits assumed): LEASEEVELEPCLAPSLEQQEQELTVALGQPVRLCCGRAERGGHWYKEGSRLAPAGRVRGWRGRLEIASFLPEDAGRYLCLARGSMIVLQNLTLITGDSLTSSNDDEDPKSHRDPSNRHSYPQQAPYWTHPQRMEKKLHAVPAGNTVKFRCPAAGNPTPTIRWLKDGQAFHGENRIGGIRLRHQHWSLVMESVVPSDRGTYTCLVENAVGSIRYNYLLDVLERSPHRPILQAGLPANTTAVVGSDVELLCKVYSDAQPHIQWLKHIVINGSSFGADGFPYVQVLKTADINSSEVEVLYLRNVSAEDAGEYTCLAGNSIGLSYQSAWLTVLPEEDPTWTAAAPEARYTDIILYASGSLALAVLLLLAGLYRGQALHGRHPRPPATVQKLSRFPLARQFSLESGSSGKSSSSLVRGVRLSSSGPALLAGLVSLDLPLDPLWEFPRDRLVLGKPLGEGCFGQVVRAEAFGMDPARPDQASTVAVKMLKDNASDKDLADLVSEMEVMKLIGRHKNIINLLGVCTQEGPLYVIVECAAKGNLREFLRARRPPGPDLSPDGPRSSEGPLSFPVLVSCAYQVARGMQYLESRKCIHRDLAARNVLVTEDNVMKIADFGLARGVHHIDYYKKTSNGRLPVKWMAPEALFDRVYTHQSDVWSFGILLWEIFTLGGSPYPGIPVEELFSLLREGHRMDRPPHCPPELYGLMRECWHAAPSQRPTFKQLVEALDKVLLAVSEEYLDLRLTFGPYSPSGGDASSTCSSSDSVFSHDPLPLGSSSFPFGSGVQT
Chain of Mitogen-activated protein kinase kinase kinase 4 (Homo sapiens) (Q9Y6R4 whole entry, the tested form may be a part): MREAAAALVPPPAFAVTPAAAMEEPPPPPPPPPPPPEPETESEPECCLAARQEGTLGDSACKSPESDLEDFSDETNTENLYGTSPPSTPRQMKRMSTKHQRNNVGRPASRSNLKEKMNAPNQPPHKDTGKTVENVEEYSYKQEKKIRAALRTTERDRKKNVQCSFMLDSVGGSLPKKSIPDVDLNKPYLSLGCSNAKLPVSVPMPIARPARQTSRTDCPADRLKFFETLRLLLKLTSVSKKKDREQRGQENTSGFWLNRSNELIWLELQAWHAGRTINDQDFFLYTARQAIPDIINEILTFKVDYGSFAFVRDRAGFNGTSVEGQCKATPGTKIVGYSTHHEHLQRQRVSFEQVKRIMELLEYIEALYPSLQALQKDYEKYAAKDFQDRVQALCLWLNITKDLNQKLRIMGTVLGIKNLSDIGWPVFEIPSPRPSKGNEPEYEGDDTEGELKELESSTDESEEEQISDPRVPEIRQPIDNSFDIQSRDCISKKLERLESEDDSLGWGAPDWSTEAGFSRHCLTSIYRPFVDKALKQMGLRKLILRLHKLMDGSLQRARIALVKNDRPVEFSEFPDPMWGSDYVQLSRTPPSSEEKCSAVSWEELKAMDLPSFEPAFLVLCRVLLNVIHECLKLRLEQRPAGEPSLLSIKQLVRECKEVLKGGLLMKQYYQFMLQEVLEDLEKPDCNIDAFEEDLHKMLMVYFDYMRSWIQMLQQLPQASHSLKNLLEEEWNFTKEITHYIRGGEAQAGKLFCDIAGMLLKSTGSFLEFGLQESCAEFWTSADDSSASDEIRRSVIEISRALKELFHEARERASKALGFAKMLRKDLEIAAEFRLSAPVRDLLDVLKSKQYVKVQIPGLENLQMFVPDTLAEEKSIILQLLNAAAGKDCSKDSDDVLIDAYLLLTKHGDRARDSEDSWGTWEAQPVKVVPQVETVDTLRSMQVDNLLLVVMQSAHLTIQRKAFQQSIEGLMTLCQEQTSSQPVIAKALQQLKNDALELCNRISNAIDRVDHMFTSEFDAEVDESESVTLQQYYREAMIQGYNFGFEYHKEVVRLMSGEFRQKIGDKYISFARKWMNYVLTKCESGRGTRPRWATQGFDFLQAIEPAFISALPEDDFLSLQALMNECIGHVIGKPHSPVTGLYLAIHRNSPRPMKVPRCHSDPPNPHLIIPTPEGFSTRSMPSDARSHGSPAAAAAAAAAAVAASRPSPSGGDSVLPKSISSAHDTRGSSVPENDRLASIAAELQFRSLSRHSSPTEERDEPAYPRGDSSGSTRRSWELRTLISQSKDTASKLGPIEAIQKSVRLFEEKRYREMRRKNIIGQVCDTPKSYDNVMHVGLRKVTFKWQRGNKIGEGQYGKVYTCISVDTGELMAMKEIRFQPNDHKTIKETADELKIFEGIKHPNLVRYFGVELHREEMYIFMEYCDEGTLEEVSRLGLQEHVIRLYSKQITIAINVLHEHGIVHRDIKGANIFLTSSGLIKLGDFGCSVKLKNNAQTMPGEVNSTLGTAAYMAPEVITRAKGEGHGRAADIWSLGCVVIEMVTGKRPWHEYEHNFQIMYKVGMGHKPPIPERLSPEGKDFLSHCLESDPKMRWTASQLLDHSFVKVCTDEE
Chain of MAP kinase-activated protein kinase 2 (Homo sapiens) (P49137 whole entry, looked up, the tested form may be a part): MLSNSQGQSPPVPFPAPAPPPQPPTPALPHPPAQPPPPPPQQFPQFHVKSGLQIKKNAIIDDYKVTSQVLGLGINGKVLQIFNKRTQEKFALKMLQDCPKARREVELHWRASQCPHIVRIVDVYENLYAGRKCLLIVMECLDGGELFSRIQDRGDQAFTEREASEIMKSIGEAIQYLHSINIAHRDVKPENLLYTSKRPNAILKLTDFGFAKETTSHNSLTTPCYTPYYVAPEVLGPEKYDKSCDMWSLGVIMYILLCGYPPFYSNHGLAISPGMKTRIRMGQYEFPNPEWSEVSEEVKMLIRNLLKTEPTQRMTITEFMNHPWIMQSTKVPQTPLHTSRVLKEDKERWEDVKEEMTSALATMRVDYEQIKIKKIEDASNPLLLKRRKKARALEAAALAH
Chain of Tyrosine-protein kinase BTK (Homo sapiens) (Q06187 whole entry, the tested form may be a part): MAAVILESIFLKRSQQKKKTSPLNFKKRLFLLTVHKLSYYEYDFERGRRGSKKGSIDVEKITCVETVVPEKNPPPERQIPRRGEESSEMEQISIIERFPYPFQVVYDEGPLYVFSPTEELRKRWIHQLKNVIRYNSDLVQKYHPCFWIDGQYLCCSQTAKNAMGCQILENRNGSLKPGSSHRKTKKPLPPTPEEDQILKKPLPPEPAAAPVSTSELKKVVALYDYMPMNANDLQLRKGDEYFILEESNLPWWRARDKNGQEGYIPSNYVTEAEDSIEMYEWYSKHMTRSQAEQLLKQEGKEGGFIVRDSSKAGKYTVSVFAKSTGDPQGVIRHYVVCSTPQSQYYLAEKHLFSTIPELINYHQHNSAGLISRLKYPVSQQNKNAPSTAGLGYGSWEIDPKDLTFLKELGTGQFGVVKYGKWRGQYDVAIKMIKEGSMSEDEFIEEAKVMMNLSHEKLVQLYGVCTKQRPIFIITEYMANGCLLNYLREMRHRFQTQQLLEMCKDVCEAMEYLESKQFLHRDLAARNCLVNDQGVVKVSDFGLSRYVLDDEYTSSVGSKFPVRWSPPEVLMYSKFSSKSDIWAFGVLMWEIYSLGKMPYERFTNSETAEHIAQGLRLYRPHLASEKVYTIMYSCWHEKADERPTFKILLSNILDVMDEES
Chain of 3-phosphoinositide-dependent protein kinase 1 (Homo sapiens) (O15530 whole entry, the tested form may be a part): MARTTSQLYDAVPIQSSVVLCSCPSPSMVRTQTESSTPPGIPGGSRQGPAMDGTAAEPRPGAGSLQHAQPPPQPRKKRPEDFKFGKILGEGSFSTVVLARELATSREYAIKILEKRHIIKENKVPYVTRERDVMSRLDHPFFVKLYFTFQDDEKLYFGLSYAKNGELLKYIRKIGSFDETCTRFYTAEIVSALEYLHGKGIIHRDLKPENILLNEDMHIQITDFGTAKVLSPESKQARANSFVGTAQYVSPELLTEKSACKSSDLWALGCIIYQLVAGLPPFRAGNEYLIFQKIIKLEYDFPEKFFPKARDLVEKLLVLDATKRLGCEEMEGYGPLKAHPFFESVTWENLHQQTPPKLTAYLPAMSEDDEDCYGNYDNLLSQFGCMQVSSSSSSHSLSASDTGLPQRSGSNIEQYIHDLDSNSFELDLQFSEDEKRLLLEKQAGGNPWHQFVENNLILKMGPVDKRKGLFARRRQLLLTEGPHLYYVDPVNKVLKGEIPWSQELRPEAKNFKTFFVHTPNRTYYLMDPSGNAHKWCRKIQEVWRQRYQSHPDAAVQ
Chain of Atypical kinase COQ8A, mitochondrial (Homo sapiens) (Q8NI60 163-647 limits assumed): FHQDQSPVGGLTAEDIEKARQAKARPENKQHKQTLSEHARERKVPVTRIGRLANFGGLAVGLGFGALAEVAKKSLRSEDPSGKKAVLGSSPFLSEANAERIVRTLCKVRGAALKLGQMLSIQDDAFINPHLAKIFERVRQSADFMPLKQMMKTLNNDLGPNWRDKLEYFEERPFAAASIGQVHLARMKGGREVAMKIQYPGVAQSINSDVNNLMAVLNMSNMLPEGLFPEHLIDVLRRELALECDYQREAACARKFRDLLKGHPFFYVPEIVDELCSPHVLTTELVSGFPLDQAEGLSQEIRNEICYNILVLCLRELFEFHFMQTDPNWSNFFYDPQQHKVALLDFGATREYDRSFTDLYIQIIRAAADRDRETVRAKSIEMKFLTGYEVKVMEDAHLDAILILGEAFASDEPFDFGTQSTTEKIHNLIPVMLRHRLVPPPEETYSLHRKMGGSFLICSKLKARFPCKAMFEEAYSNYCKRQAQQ
Chain of Mitogen-activated protein kinase 9 (Homo sapiens) (P45984 whole entry, looked up, the tested form may be a part): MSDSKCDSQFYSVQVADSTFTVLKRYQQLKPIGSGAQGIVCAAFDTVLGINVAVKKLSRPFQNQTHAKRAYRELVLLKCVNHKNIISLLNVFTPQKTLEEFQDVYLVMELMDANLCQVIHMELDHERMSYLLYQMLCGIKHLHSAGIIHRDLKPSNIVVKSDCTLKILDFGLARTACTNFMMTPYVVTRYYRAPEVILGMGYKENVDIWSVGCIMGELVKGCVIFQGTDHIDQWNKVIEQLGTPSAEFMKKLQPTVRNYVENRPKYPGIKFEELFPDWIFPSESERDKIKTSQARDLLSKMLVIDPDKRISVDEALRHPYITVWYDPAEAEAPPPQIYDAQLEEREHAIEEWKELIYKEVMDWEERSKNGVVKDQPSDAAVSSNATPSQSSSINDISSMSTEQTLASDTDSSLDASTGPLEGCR

Structure (SMILES): CCNc1cc(-c2ccc(NC(=O)Nc3cccc(Cl)c3)cc2C(F)(F)F)ccn1
- Activity [1]: 69%
- Activity (BT-483 [2]): 78.2%
- Activity [3]: 67%
- Activity (BT-474): Active
- Activity (BT-483 [4]): Non-Toxic
- Activity [5]: 65%
- Activity [6]: 64%
- Activity (BT-483 [7]): Active
- Activity [8]: 92%
- Activity [9]: 62%
- Activity [10]: 80%
- Activity [11]: 60%
- Activity [12]: 95%
- Activity [13]: 94%
- Activity [14]: 95%
- Activity [15]: 63%
- Activity [16]: 83%
- Activity [17]: 81%
- Activity [18]: 85%
- Activity [19]: 80%
- Activity [20]: 88%
- Activity [21]: 93%
- Activity [22]: 78%
- Activity [23]: 88%
- Activity [24]: 95%
- Activity (BT-483 [25]): Active
- Activity [26]: 80%
